From ChEMBL document CHEMBL3272025, “Conformation-activity studies of oxytocin. Effects of structural modifications at corner positions of the beta-turns on the uterotonic activity” (J Med Chem, 1977)
Bridge positions count the residues as written; N and C are the ends. Peptide text beside a SMILES is read from it.

Legend:
[1] = target: T1, Oxytocin receptor (Rattus norvegicus) (UniProt P70536); assay: Agonist activity at oxytocin receptor in virgin rat uterine horns assessed as uterotonic activity at relative to synthetic oxytocin
T1 sequence (whole entry): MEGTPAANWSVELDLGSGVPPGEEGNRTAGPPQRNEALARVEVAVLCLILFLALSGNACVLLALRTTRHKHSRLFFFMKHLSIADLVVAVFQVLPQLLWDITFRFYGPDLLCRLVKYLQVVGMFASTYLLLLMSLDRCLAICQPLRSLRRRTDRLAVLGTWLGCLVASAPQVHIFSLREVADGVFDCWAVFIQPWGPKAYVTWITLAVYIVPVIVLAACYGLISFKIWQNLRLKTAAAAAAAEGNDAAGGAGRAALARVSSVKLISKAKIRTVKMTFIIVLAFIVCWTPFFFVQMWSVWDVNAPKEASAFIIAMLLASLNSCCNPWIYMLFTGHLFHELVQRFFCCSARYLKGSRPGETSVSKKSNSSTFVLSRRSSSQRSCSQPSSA

[2] = target: T1, Oxytocin receptor (Rattus norvegicus); assay: Agonist activity at oxytocin receptor in virgin rat uterine horns assessed as uterotonic activity at
[3] = test system: Gallus gallus; assay: Vasodepressor activity in conscious chicken; format: functional
[4] = test system: Rattus norvegicus; assay: Antidiuretic activity in anesthetized rat; format: functional, Urine
[5] = Retardation factor of the compound using BuOH-HOAc-H2O at ratio of 4:1:1 as solvent system by thin layer chromatography; format: physicochemical
[6] = Retardation factor of the compound using BuOH-pyridine-HOAc-H2O at ratio of 15:10:3:6 as solvent system by thin layer chromatography; format: physicochemical
[7] = test system: Rattus norvegicus; assay: Pressor activity in anesthetized rat; format: functional
[8] = Retardation factor of the compound using BuOH-C6H6-HOAc-1.5% aqueous pyridine at ratio of 10:15:12:18 as solvent system by partition chromatography; format: physicochemical; conditions: buffer
[9] = Retardation factor of the compound using BuOH-pyridine-H2O at ratio of 20:10:11 as solvent system by thin layer chromatography; format: physicochemical
[10] = Retardation factor of the compound using BuOH-C6H6-HOAc-1.5% aqueous pyridine at ratio of 5:5:4:6 as solvent system by partition chromatography; format: physicochemical; conditions: buffer
[11] = test system: Gallus gallus; assay: Inhibition of vasodepressor activity in conscious chicken; format: functional, organism-based; conditions: read-out: pA2 (converted)

Activity [1] [%] | Activity [2] [U/mg] | Rf [5] | Rf [6] | Rf [8] | Rf [9] | Rf [10] | SMILES | Activity [3] [U/mg] | Activity [4] [U/mg] | Activity [7] [U/mg] | Kb [11] [nM]
90 | 39 | – | – | – | – | – | CC(C)C[C@H](NC(=O)[C@@H]1CCCN1C(=O)[C@@H]1CSSC[C@H](N)C(=O)N[C@@H](Cc2ccc(O)cc2)C(=O)N[C@@H](Cc2ccccc2)C(=O)N[C@@H](CCC(N)=O)C(=O)N[C@@H](CC(N)=O)C(=O)N1)C(=O)NCC(N)=O (H-CYFQNCPLG-NH2; disulfide 1-6) | – | – | – | –
66 | 0.62 | 0.38 | 0.64 | 0.17 | – | – | CSCC[C@H](NC(=O)[C@@H]1CCCN1C(=O)[C@@H]1CSSC[C@H](N)C(=O)N[C@@H](Cc2ccc(O)cc2)C(=O)N[C@@H](Cc2ccccc2)C(=O)N[C@@H](CC(C)C)C(=O)N[C@@H](CC(N)=O)C(=O)N1)C(=O)NCC(N)=O (H-CYFLNCPMG-NH2; disulfide 1-6) | 1.05 | 0.33 | 0.92 | –
75 | 0.75 | 0.38 | – | 0.26 | 0.61 | – | CC[C@H](C)[C@@H]1NC(=O)[C@H](Cc2ccc(O)cc2)NC(=O)[C@@H](N)CSSC[C@@H](C(=O)N2CCC[C@H]2C(=O)N[C@@H](CC(C)C)C(=O)NCC(N)=O)NC(=O)[C@H](CC(N)=O)NC(=O)[C@H](Cc2ccccc2)NC1=O (H-CYIFNCPLG-NH2; disulfide 1-6) | – | – | – | –
54 | – | 0.38 | – | 0.19 | – | 0.49 | CSCC[C@H](NC(=O)[C@@H]1CCCN1C(=O)[C@@H]1CSSC[C@H](N)C(=O)N[C@@H](Cc2ccc(O)cc2)C(=O)N[C@@H](Cc2ccccc2)C(=O)N[C@@H](Cc2ccccc2)C(=O)N[C@@H](CC(N)=O)C(=O)N1)C(=O)NCC(N)=O (H-CYFFNCPMG-NH2; disulfide 1-6) | – | 0.43 | – | 513
81 | 13 | – | – | – | – | – | CC[C@H](C)[C@@H]1NC(=O)[C@H](Cc2ccc(O)cc2)NC(=O)[C@@H](N)CSSC[C@@H](C(=O)N2CCC[C@H]2C(=O)N[C@@H](CC(C)C)C(=O)NCC(N)=O)NC(=O)[C@H](CC(N)=O)NC(=O)[C@H](CC(C)C)NC1=O (H-CYILNCPLG-NH2; disulfide 1-6) | – | – | – | –
